According to patent publication US9518052B2, “Pyrazolopyridines and pyrazolopyrimidines” (Pfizer Inc., priority 2014, dated 2016):
Counter-ions that a name gives are not always drawn.

Experiments:
Assay type in all cases: biochemical
Conditions in all cases: Caliper assay at 1 mM ATP
JAK1 = JAK1 (Homo sapiens (Human), UniProt P23458); assay: JAK Caliper Enzyme Assay at 1 mM ATP (JAK1)
Description: (§1) JAK Caliper Enzyme Assay at 1 mM ATP
(§2) Test article was solubilized in dimethyl sulfoxide (DMSO) to a stock concentration of 30 mM. An 11-point half log dilution series was created in DMSO with a top concentration of 600 μM. […] The compound plates were diluted 1 to 60 resulting in a top final assay compound concentration of 10 μM and a 2% DMSO concentration.
(§3) Test article and assay controls were added to a 384-well plate. Reaction mixtures contained 20 mM HEPES, pH 7.4, 10 mM magnesium chloride, 0.01% bovine serum albumin (BSA), 0.0005% Tween 20, 1 mM ATP and 1 μM peptide substrate. […] Enzyme concentrations and incubation times were optimized for each new enzyme preps and were modified slightly over time to ensure 20%-30% phosphorylation. The assays were stopped with a final concentration of 10 mM EDTA, 0.1% Coating Reagent and 100 mM HEPES, pH=7.4. The assay plates were placed on a Caliper Life Science Lab Chip 3000 (LC3000) instrument, and each well was sampled using appropriate separation conditions to measure the unphosphorylated and phosphorylated peptide.

JAK3 = JAK3 (Homo sapiens (Human), UniProt P52333); assay: JAK Caliper Enzyme Assay at 1 mM ATP (JAK3)
Sequence of JAK3 (P52333 whole entry, species assumed): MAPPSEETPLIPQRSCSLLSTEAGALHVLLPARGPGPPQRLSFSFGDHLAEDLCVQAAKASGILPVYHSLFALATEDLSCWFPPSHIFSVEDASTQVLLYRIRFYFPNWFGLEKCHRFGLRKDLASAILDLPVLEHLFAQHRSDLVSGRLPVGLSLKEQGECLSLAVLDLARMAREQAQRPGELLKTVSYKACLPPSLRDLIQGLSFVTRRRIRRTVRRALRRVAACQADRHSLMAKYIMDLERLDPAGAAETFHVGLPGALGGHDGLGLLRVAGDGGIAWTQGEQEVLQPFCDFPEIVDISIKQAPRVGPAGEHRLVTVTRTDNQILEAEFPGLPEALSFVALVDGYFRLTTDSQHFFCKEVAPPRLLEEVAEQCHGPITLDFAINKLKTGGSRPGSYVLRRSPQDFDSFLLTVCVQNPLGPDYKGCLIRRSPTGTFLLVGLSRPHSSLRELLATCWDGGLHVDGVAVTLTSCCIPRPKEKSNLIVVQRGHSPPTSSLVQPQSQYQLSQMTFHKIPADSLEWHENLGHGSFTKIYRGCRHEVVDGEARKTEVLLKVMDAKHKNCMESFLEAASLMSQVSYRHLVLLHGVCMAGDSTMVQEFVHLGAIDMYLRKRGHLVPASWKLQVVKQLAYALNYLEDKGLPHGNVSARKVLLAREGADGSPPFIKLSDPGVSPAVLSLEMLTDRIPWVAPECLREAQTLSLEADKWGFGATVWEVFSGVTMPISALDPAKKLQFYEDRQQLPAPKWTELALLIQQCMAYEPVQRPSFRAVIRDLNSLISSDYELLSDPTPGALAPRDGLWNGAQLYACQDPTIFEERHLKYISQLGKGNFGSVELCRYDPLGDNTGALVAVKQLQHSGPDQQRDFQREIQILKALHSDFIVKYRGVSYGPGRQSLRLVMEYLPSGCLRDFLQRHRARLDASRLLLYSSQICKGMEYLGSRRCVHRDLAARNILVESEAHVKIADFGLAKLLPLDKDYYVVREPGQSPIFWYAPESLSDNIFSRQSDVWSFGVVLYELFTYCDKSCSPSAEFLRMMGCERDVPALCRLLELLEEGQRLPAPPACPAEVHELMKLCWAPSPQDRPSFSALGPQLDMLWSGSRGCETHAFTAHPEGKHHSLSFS
Description: as §1, §2, §3

TYK2 = TYK2 (Homo sapiens (Human), UniProt P29597); assay: JAK Caliper Enzyme Assay at 1 mM ATP (TYK2)
Sequence of TYK2 (P29597 whole entry, species assumed): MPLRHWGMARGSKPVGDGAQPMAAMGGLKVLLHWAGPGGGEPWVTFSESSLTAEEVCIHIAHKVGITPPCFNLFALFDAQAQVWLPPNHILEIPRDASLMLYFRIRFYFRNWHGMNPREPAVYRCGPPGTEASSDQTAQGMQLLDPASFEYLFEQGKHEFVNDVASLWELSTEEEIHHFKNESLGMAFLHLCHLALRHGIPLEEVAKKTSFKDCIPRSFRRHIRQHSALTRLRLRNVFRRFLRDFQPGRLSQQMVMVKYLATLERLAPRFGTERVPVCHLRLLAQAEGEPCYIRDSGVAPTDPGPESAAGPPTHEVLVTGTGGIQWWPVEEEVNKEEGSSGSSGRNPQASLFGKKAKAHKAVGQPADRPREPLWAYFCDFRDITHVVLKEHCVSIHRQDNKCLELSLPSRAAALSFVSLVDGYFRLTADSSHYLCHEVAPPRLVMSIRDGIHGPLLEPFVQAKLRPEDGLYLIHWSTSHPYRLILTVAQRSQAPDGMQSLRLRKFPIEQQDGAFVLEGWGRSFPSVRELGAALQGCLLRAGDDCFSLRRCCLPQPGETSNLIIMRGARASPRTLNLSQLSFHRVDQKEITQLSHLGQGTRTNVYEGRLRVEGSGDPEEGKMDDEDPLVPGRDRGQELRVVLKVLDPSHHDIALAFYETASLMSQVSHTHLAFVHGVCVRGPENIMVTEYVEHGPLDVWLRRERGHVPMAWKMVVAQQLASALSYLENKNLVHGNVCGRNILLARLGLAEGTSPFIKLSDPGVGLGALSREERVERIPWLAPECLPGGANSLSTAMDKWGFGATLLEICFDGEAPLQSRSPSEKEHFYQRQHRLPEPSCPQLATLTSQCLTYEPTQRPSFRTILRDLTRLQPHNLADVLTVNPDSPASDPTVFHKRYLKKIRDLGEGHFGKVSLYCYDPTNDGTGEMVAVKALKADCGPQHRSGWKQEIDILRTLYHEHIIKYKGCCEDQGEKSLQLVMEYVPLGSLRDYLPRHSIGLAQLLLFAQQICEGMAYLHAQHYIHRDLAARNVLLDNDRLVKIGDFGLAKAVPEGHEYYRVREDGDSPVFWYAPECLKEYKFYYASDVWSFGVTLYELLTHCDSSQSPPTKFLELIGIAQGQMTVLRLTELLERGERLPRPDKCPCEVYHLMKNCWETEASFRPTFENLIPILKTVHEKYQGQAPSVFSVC
Description: as §1, §2, §3

JAK2 = JAK2 (Homo sapiens (Human), UniProt O60674); assay: JAK Caliper Enzyme Assay at 1 mM ATP (JAK2)
Sequence of JAK2 (O60674 whole entry, species assumed): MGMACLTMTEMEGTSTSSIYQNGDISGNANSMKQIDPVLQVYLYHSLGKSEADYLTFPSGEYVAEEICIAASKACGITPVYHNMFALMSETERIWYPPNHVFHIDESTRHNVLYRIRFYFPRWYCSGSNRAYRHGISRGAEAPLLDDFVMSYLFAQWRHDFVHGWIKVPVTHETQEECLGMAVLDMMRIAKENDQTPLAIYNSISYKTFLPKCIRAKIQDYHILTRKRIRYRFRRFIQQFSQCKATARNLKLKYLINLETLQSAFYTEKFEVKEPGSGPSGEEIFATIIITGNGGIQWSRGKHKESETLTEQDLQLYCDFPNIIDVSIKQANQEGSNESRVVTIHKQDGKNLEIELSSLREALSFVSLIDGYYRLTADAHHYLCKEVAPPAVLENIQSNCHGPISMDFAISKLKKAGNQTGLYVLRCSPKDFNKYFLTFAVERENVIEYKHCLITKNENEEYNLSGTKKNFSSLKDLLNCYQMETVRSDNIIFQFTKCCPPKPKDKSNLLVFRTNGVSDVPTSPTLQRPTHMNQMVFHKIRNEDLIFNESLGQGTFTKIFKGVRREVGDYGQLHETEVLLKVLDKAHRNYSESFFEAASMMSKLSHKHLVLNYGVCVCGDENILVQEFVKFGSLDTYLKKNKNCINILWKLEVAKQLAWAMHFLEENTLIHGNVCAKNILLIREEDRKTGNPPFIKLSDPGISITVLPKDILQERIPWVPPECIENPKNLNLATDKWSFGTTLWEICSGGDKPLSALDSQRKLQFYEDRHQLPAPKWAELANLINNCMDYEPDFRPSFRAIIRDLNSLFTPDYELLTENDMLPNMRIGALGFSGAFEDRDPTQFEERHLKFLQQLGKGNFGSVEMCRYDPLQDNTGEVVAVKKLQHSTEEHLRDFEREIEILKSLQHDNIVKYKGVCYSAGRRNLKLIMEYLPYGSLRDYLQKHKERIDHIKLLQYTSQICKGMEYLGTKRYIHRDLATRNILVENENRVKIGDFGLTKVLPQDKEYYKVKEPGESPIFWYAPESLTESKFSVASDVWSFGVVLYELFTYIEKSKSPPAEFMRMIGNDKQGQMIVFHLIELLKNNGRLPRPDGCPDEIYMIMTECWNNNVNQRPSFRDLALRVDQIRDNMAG
Description: as §1, §2, §3

Sequence of JAK1 (P23458 whole entry, species assumed): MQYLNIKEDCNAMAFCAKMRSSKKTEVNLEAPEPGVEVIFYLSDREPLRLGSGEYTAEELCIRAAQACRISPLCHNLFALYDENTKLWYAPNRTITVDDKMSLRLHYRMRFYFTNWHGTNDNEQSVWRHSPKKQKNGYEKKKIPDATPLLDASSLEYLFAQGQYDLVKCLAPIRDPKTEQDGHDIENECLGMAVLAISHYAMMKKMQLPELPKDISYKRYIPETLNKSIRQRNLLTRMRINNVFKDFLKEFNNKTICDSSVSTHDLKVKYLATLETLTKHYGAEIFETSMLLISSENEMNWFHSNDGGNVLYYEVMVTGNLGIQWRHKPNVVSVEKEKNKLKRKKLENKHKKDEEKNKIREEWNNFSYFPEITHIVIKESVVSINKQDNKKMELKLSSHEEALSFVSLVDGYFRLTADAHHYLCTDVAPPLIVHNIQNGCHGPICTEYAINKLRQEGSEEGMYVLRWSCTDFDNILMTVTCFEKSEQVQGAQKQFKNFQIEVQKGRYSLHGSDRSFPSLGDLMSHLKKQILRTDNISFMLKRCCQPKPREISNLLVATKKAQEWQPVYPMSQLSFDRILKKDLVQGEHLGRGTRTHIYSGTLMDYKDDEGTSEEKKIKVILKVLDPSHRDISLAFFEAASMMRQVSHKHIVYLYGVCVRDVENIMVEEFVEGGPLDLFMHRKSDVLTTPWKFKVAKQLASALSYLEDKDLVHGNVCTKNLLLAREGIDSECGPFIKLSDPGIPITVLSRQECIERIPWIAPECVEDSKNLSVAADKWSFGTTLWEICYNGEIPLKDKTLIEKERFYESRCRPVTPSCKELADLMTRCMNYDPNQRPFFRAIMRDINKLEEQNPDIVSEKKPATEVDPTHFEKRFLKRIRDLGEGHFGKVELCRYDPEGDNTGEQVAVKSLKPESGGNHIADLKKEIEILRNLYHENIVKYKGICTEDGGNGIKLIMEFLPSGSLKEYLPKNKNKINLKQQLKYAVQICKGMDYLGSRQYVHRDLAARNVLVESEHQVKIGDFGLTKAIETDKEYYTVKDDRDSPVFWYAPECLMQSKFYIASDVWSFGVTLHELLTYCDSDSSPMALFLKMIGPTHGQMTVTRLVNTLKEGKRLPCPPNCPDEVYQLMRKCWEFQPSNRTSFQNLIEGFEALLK

Compound	IC50 (JAK1) [nM]	IC50 (JAK3) [nM]	IC50 (TYK2) [nM]	IC50 (JAK2) [nM]
Oc1cc(CC(F)(F)F)c(-c2nc(NCCC3CC3)c3cn[nH]c3n2)cc1F [Example 152, 4-{4-[(2-cyclopropylethyl)amino]-1H-pyrazolo[3,4-d]pyrimidin-6-yl}-2-fluoro-5-(2,2,2-trifluoroethyl)phenol]	41.6	157	–	228
CCc1cc(O)c(F)cc1-c1cc2[nH]ncc2c(N(CCN2CCOCC2)Cc2ccccc2N(C)S(C)(=O)=O)n1 [Example 140, N-[2-({[6-(2-ethyl-5-fluoro-4-hydroxyphenyl)-1H-pyrazolo[4,3-c]pyridin-4-yl][2-(morpholin-4-yl)ethyl]amino}methyl)phenyl]-N-methylmethanesulfonamide]	18.1	131	–	53.5
CCN(c1ccccc1CNc1nc(-c2cc(F)c(O)cc2CC(F)(F)F)cc2[nH]nc(C(N)=O)c12)S(=O)(=O)CC [Example 82, 4-((2-(N-ethylethylsulfonamido)benzyl)amino)-6-(5-fluoro-4-hydroxy-2-(2,2,2-trifluoroethyl)phenyl)-1H-pyrazolo[4,3-c]pyridine-3-carboxamide]	13.7	313	121	–
CCc1cc(O)c(F)cc1-c1cc2[nH]ncc2c(N(CCc2ccc(OC)c(OC)c2)Cc2ccccc2N(C)S(C)(=O)=O)n1 [Example 129, N-[2-({[2-(3,4-dimethoxyphenyl)ethyl][6-(2-ethyl-5-fluoro-4-hydroxyphenyl)-1H-pyrazolo[4,3-c]pyridin-4-yl]amino}methyl)phenyl]-N-methylmethanesulfonamide hydrochloride]	11.6	180	56.6	–
CNC(=O)c1n[nH]c2cc(-c3cc(F)c(O)cc3CC(F)(F)F)nc(NCc3cnccc3N(C)S(C)(=O)=O)c12 [Example 48, 6-[5-fluoro-4-hydroxy-2-(2,2,2-trifluoroethyl)phenyl]-N-methyl-4-[({4-[methyl(methylsulfonyl)amino]pyridin-3-yl}methyl)amino]-1H-pyrazolo[4,3-c]pyridine-3-carboxamide]	67.6	148	–	188
CN(c1ccc(O)cc1CNc1nc(-c2cc(F)c(O)cc2CC(F)(F)F)cc2[nH]nc(C(N)=O)c12)S(=O)(=O)c1ccccc1 [Example 42, 6-[5-fluoro-4-hydroxy-2-(2,2,2-trifluoroethyl)phenyl]-4-({5-hydroxy-2-[methyl(phenylsulfonyl)-amino]benzyl}amino)-1H-pyrazolo[4,3-c]pyridine-3-carboxamide]	25.3	534	233	–
CNC(=O)c1n[nH]c2cc(-c3cc(F)c(O)cc3C3CC3)nc(NCc3cccnc3N(C)S(C)(=O)=O)c12 [Example 49, 6-(2-cyclopropyl-5-fluoro-4-hydroxyphenyl)-N-methyl-4-[({2-[methyl(methylsulfonyl)amino]pyridin-3-yl}methyl)amino]-1H-pyrazolo[4,3-c]pyridine-3-carboxamide]	78	248	–	181
CNC(=O)c1n[nH]c2cc(-c3cc(F)c(O)cc3CC(F)(F)F)nc(NCc3nccnc3N(C)S(=O)(=O)c3ccccc3)c12 [Example 44, 6-[5-fluoro-4-hydroxy-2-(2,2,2-trifluoroethyl)phenyl]-N-methyl-4-[({3-[methyl(phenylsulfonyl)amino]pyrazin-2-yl}methyl)amino]-1H-pyrazolo[4,3-c]pyridine-3-carboxamide]	25.8	293	999	–
N-benzyl-2-[6-(2-ethyl-4-hydroxyphenyl)-1H-pyrazolo[4,3-c]pyridin-4-yl]-1,2,3,4-tetrahydroiso-quinoline-5-carboxamide formate [Example 117]	–	41.6	425	–
CCCCNc1nc(-c2cc(F)c(O)cc2CC(F)(F)F)nc2[nH]ncc12 [Example 154, 4-[4-(butylamino)-1H-pyrazolo[3,4-d]pyrimidin-6-yl]-2-fluoro-5-(2,2,2-trifluoroethyl)phenol]	77.6	228	5140	–

The remaining compounds from weak to strong by IC50 (JAK3), led by results:

IC50 (JAK1) [nM]	IC50 (JAK3) [nM]	IC50 (TYK2) [nM]	IC50 (JAK2) [nM]	Compound
33.9	125	2980	–	Oc1cc(CC(F)(F)F)c(-c2nc(NCC3CC3)c3cn[nH]c3n2)cc1F [Example 151, 4-{4-[(cyclopropylmethyl)-amino]-1H-pyrazolo[3,4-d]pyrimidin-6-yl}-2-fluoro-5-(2,2,2-trifluoroethyl)phenol]
4.7	103	298	–	Cc1ccc(N(C)S(C)(=O)=O)c(CNc2nc(-c3cc(F)c(O)cc3CC(F)(F)F)cc3[nH]nc(C(N)=O)c23)c1 [Example 81, 6-[5-fluoro-4-hydroxy-2-(2,2,2-trifluoroethyl)phenyl]-4-({5-methyl-2-[methyl(methylsulfonyl)-amino]benzyl}amino)-1H-pyrazolo[4,3-c]pyridine-3-carboxamide]
9.7	102	243	–	CNC(=O)c1n[nH]c2cc(-c3cc(F)c(O)cc3CC(F)(F)F)nc(NCc3cccnc3N(C)S(C)(=O)=O)c12 [Example 53, 6-[5-fluoro-4-hydroxy-2-(2,2,2-trifluoroethyl)phenyl]-N-methyl-4-[({2-[methyl(methylsulfonyl)amino]pyridin-3-yl}methyl)amino]-1H-pyrazolo[4,3-c]pyridine-3-carboxamide]
10.8	89.2	–	128	CCc1cc(O)ccc1-c1cc2[nH]ncc2c(N2CC(Oc3cc(C#N)ccc3Cl)C2)n1 [Example 120, 4-chloro-3-({1-[6-(2-ethyl-4-hydroxyphenyl)-1H-pyrazolo[4,3-c]pyridin-4-yl]azetidin-3-yl}oxy)benzonitrile formate]
5	52	169	–	CNC(=O)c1n[nH]c2cc(-c3cc(F)c(O)cc3C3CC3)nc(NCc3ccccc3N(C)S(C)(=O)=O)c12 [Example 37, 6-(2-cyclopropyl-5-fluoro-4-hydroxyphenyl)-N-methyl-4-({2-[methyl(methyl-sulfonyl)amino]benzyl}amino)-1H-pyrazolo[4,3-c]pyridine-3-carboxamide]
10.5	51.1	–	–	CS(=O)(=O)N(CCO)c1ccccc1CNc1nc(-c2cc(F)c(O)cc2CC(F)(F)F)nc2[nH]nc(C(N)=O)c12 [Example 101, 6-(5-fluoro-4-hydroxy-2-(2,2,2-trifluoroethyl)phenyl)-4-((2-(N-(2-hydroxyethyl)methylsulfonamido)benzyl)amino)-1H-pyrazolo[3,4-d]pyrimidine-3-carboxamide]
4.1	47.4	310	–	CN(c1ccc(O)cc1CNc1nc(-c2cc(F)c(O)cc2CC(F)(F)F)nc2[nH]nc(-c3nnc(C4CCN(C(N)=O)CC4)[nH]3)c12)S(C)(=O)=O [Example 167, 4-(5-{6-[5-Fluoro-4-hydroxy-2-(2,2,2-trifluoroethyl)phenyl]-4-({5-hydroxy-2-[methyl(methylsulfonyl)amino]benzyl}amino)-1H-pyrazolo[3,4-d]pyrimidin-3-yl}-4H-1,2,4-triazol-3-yl)piperidine-1-carboxamide]
4.9	39.6	600	–	CN(c1ccccc1CNc1nc(-c2cc(F)c(O)cc2CC(F)(F)F)nc2[nH]nc(C(N)=O)c12)S(C)(=O)=O [Example 98, 6-(5-Fluoro-4-hydroxy-2-(2,2,2-trifluoroethyl)phenyl)-4-((2-(N-methylmethylsulfonamido)benzyl)amino)-1H-pyrazolo[3,4-d]pyrimidine-3-carboxamide]
3.3	36.9	153	–	CNC(=O)c1n[nH]c2cc(-c3cc(F)c(O)cc3CC(F)(F)F)nc(NCc3ccccc3CS(N)(=O)=O)c12 [Example 64, 6-[5-fluoro-4-hydroxy-2-(2,2,2-trifluoroethyl)phenyl]-N-methyl-4-{[2-(sulfamoylmethyl)benzyl]amino}-1H-pyrazolo[4,3-c]pyridine-3-carboxamide]
1.5	33.2	19	–	CCc1cc(O)c(F)cc1-c1cc2[nH]nc(C(=O)NC)c2c(NCc2ccc(O)cc2N(C)S(C)(=O)=O)n1 [Example 29, 6-(2-Ethyl-5-fluoro-4-hydroxyphenyl)-4-({4-hydroxy-2-[methyl(methylsulfonyl)amino]benzyl}amino)-N-methyl-1H-pyrazolo[4,3-c]pyridine-3-carboxamide]
1.7	26.6	15.3	–	CCc1cc(O)c(F)cc1-c1cc2[nH]nc(C(=O)NC)c2c(NCCc2ccc(O)cc2)n1 [Example 4, 6-(2-ethyl-5-fluoro-4-hydroxyphenyl)-4-{[2-(4-hydroxyphenyl)ethyl]amino}-N-methyl-1H-pyrazolo[4,3-c]pyridine-3-carboxamide]
–	14.2	4.8	2.6	N-ethyl-N-[2-({[6-(2-ethyl-5-fluoro-4-hydroxyphenyl)-1H-pyrazolo[4,3-c]pyridin-4-yl]amino}methyl)phenyl]ethanesulfonamide [Example 138]
0.2	4.4	5.6	–	CCc1cc(O)ccc1-c1cc2[nH]ncc2c(NCc2ccccc2N(C)S(C)(=O)=O)n1 [Example 125, N-[2-({[6-(2-Ethyl-4-hydroxyphenyl)-1H-pyrazolo[4,3-c]pyridin-4-yl]amino}methyl)phenyl]-N-methylmethanesulfonamide hydrochloride]
